Measurements: article PMC7380166, “How to Study the Metabolism of New Psychoactive Substances for the Purpose of Toxicological Screenings—A Follow-Up Study Comparing Pooled Human Liver S9, HepaRG Cells, and Zebrafish Larvae” (Frontiers in Chemistry, 2020)

Assays:
[1] = ref Wagmann et al., cited from earlier work
zebrafish larvae [2] = assay: In vivo maximum-tolerated concentration (MTC) study in zebrafish larvae; design: species or system zebrafish (Danio rerio); conditions: for Survival rate: 24-h treatment, fifteen larvae
Protocol: Internal protocols based on published standard methods (Westerfield, [2007]) were used to perform zebrafish husbandry and the maximum-tolerated concentration (MTC) testing was based on a previous study (Richter et al., [2019a]). Danieau's medium [17 mM NaCl, 2 mM KCl, 0.12 mM MgSO4, 1.8 mM Ca(NO3)2, 1.5 mM HEPES, pH 7.1–7.3, and 1.2 μM methylene blue] at 28°C was used to raise zebrafish larvae of the AB wild-type strain. For MTC testing, 96-well plates were used with 100 μl of medium and one larva per well. Drug exposition was started 4 dpf using 0, 0.01, 0.1, 1, 10, 50, or 100 μM final concentrations of 3,4-DMA-NBOMe, ephylone, 4F-MDMB-BINACA, 4F-PHP, or 1P-LSD, respectively. The drug exposure in the incubator at 28°C lasted 24 h. The final DMSO concentration was 1% (v/v) for all experiments. Monitoring of the larvae was done using a LEICA M205 FA stereo microscope (Leica Mikrosysteme Vertrieb GmbH, Wetzlar, Germany) to detect developmental defects and/or decreased survival rates. Fifteen larvae were used for each experiment.

[3] = after assumed consumption of a blotter containing 1P-LSD; ref Grumann et al., [2019]; cited from earlier work
monooxygenases = conditions: initial monooxygenases activity screenings described elsewhere; ref Caspar et al., [2018a]; Wagmann et al., [2019b],[c]; cited from earlier work
HepaRG cells = assay: Incubations with HepaRG cells, metabolite identification by LC-HRMS/MS; assay type: in vitro ADME, human; conditions: 24 h
[4] = after subcutaneous administration of 1P-LSD to rats; ref Halberstadt et al., [2019]; cited from earlier work
zebrafish larvae [5] = assay: Zebrafish larvae exposure, metabolite identification by LC-HRMS/MS; conditions: 24 h

CCC(=O)n1cc2c3c(cccc31)C1=C[C@@H](C(=O)N(CC)CC)CN(C)[C@@H]1C2 [Metabolite 1P-LSD, 1-propionyl-d-lysergic acid diethylamide]
Number of phase I metabolites detected, pHLS9 [25 μM] ([1]; 25 μM, [2019c]): 8 (Wagmann et al., [2019c])
Number of phase II metabolites detected, pHLS9 [25 μM] ([1]; 25 μM, [2019c]): 0 (Wagmann et al., [2019c])
Detection in pHLS9 [25 µM] ([1]; 1P-LSD and metabolites, n = 2, according to literature, 2019b): +
Survival rate (zebrafish larvae [2]; 0.01 μM, larvae 4 dpf): 100%
Survival rate (zebrafish larvae [2]; 0.1 μM, larvae 4 dpf): 100%
Survival rate (zebrafish larvae [2]; 1 μM, larvae 4 dpf): 100%
Survival rate (zebrafish larvae [2]; 10 μM, larvae 4 dpf): 100%
Survival rate (zebrafish larvae [2]; 50 μM, larvae 4 dpf): 100%
Survival rate (zebrafish larvae [2]; 100 μM, larvae 4 dpf): 100%
Survival rates for all tested concentrations (zebrafish larvae [2]; 0.01 to 100 μM, larvae 4 dpf, 24 h): 100%
Concentration considered non-toxic for zebrafish larvae (4 dpf) (zebrafish larvae [2]; 24 h exposure via medium): 100 µM
Malformations (zebrafish larvae [2]; up to 100 μM, larvae 4 dpf, 24 h): no malformations
Detection in serum and urine samples of an intoxicated patient [3]: could not be detected
Monooxygenases involved in metabolism (monooxygenases): N-dealkylated and hydroxylated exclusively by CYP3A4
Absolute peak area, HepaRG [25 μM] (HepaRG cells; 25 μM parent NPS, cell culture medium, one replicate of n = 3, n.d. = not detected): 3.60E+07
Number of phase I metabolites detected, HepaRG [25 μM] (HepaRG cells; 25 μM): 14
Number of phase II metabolites detected, HepaRG [25 μM] (HepaRG cells; 25 μM): 1
Absolute peak area, HepaRG [250 μM] (HepaRG cells; 250 μM parent NPS, cell culture medium, one replicate of n = 3, n.d. = not detected): 5.41E+06
Number of phase I metabolites detected, HepaRG [250 μM] (HepaRG cells; 250 μM): 15
Number of phase II metabolites detected, HepaRG [250 μM] (HepaRG cells; 250 μM): 2
Detection in rat plasma [4]: able to detect
Number of phase I metabolites detected, Zebrafish larvae (zebrafish larvae [5]; 100 μM in medium): 22
Number of phase II metabolites detected, Zebrafish larvae (zebrafish larvae [5]; 100 μM in medium): 3
Absolute peak area, Zebrafish larvae [100 µM] (zebrafish larvae [5]; 100 µM parent NPS in medium, larvae 4 dpf, larvae extract, one replicate of n = 3, n.d. = not detected): 2.92E+09
